Assay results reported in ChEMBL document CHEMBL5365500, “Development and Antibacterial Properties of 4-[4-(Anilinomethyl)-3-phenylpyrazol-1-yl]benzoic Acid Derivatives as Fatty Acid Biosynthesis Inhibitors” (J Med Chem, 2023).
Values after ≈ are worked out from the molar mass of the structure shown. Active and inactive are the calls of the source. The calls are words filed in the database; no cut-off is given here.

Tests used:
Staphylococcus aureus [1] = assay: Antimicrobial activity against clinical isolate Staphylococcus aureus Smu57 assessed as inhibition of growth measured after 20 to 24 hrs incubation by CLSI method; assay type: functional; details: time 20-24 hrs
Staphylococcus aureus [2] = assay: Resistance development in methicillin-sensitive Staphylococcus aureus ATCC 25923 assessed as fold increase in MIC at 0.5 times of MIC measured at 4 to 6 th passages by multistep resistance assay; assay type: functional
Staphylococcus aureus [3] = assay: Antimicrobial activity against methicilline-resistant Staphylococcus aureus ATCC 700699 persisters assessed as bacterial killing at 32 time of MIC concentration measured for every 2 hrs upto 8 hrs by Persisters time course assay; assay type: functional, organism-based
Bacillus subtilis = assay: Antimicrobial activity against antibiotic-resistant Bacillus subtilis ATCC 6623 assessed as inhibition of visible growth measured after 20 to 24 hrs incubation by CLSI method; assay type: functional; details: time 20-24 hrs
Erythrocyte [4] = assay: Hemolytic activity in sheep red blood cells assessed as hemolysis at 64 ug/ml incubated for 30 mins relative to control; assay type: toxicity, cell-based, Ovis aries; details: 0.5 h, at 64 µg/mL
Staphylococcus aureus [5] = assay: Antimicrobial activity against clinical isolate Staphylococcus aureus Smu81 assessed as inhibition of growth measured after 20 to 24 hrs incubation by CLSI method; assay type: functional; details: time 20-24 hrs
Staphylococcus aureus [6] = assay: Antimicrobial activity against methicilline-resistant Staphylococcus aureus ATCC 700699 persisters assessed as reduction in initial persister concentration at 16 times of MIC concentration measured for 2 hrs by Persisters time course assay; assay type: functional, organism-based
Staphylococcus aureus [7] = assay: Antimicrobial activity against Staphylococcus aureus ATCC 25923 assessed as inhibition of biofilm formation by measuring prevention of turbidity after 24 hrs incubation by Real-time monitoring method; assay type: functional
Staphylococcus aureus [8] = assay: Antimicrobial activity against clinical isolate Staphylococcus aureus Smu21 assessed as inhibition of growth measured after 20 to 24 hrs incubation by CLSI method; assay type: functional; details: time 20-24 hrs
Staphylococcus aureus [9] = assay: Antimicrobial activity against antibiotic-resistant Staphylococcus aureus ATCC BAA-2312 assessed as inhibition of visible growth measured after 20 to 24 hrs incubation by CLSI method; assay type: functional; details: time 20-24 hrs
Staphylococcus aureus [10] = assay: Antimicrobial activity against antibiotic-resistant Staphylococcus aureus ATCC 33592 assessed as inhibition of visible growth measured after 20 to 24 hrs incubation by CLSI method; assay type: functional; details: time 20-24 hrs
Staphylococcus aureus [11] = assay: In vivo antimicrobial activity against Staphylococcus aureus Newman infected in Caenorhabditis elegans AU37 nematodes assessed as viability of nematodes incubated for 5 days by susceptibility test; assay type: functional; details: 120 h, time 5 day
Staphylococcus aureus [12] = assay: Antimicrobial activity against methicilline-resistant Staphylococcus aureus ATCC 700699 persisters assessed as reduction in initial persister concentration at 2 times of MIC concentration measured for 2 to 8 hrs by Persisters time course assay; assay type: functional, organism-based; details: time 2-8 hrs
Staphylococcus aureus [13] = assay: Antimicrobial activity against Staphylococcus aureus UAB159 assessed as inhibition of growth measured after 20 to 24 hrs incubation by CLSI method; assay type: functional; details: time 20-24 hrs
Enterococcus faecalis [14] = assay: Antimicrobial activity against Enterococcus faecalis ATCC 29212 assessed as inhibition of biofilm formation by measuring prevention of turbidity after 24 hrs incubation by Real-time monitoring method; assay type: functional
Staphylococcus aureus [15] = assay: Antimicrobial activity against methicilline-resistant Staphylococcus aureus ATCC 700699 persisters assessed as reduction in initial persister concentration at 8 times of MIC concentration measured for 8 hrs by Persisters time course assay; assay type: functional
Staphylococcus aureus [16] = assay: In vivo antimicrobial activity against Staphylococcus aureus USA300 infected in Caenorhabditis elegans AU37 nematodes assessed as viability of nematodes incubated for 5 days by susceptibility test; assay type: functional; details: USA300, 120 h, time 5 day
Staphylococcus aureus [17] = assay: In vivo antimicrobial activity against Staphylococcus aureus UAMS-1 infected in Caenorhabditis elegans AU37 nematodes assessed as viability of nematodes incubated for 5 days by susceptibility test; assay type: functional; details: UAMS-1, 120 h, time 5 day
Staphylococcus aureus [18] = assay: Antimicrobial activity against clinical isolate Staphylococcus aureus Smu9 assessed as inhibition of growth measured after 20 to 24 hrs incubation by CLSI method; assay type: functional; details: time 20-24 hrs
Enterococcus faecium = assay: Antimicrobial activity against Enterococcus faecium […] assessed as inhibition of biofilm formation after 24 hrs incubation by Real-time monitoring method; assay type: functional
Cell membrane [19] = assay: Induction of membrane permeability in Staphylococcus aureus ATCC 700699 assessed as increase in fluorescence at 8 times of MIC incubated for 15 mins measured for 1 hr by propidium iodide/real time fluorescence based flow cytometry; assay type: subcellular
Staphylococcus aureus [20] = assay: Antimicrobial activity against clinical isolate Staphylococcus aureus Smu109 assessed as inhibition of growth measured after 20 to 24 hrs incubation by CLSI method; assay type: functional; details: time 20-24 hrs
Staphylococcus aureus [21] = assay: Antimicrobial activity against Staphylococcus aureus ATCC 25923 assessed as inhibition of visible growth measured after 20 to 24 hrs incubation by CLSI method; assay type: functional; details: time 20-24 hrs
Enterococcus faecalis [22] = assay: Antimicrobial activity against antibiotic-susceptible Enterococcus faecalis ATCC 29212 assessed as eradication of biofilm measured after 24 hrs incubation by Calgary method; assay type: functional
Cell membrane [23] = assay: Induction of membrane permeability in Staphylococcus aureus ATCC 700699 assessed as increase in fluorescence at 0.5 to 2 times of MIC incubated for 15 mins measured for 1 hr by propidium iodide/real time fluorescence based flow cytometry; assay type: subcellular; details: time 75.0 min
[24] = tested on: Panel NCI-60 (60 carcinoma cell lines); assay: Cytotoxicity against human panel NCI-60 (60 carcinoma cell lines)cells assessed as cell viability at 10 uM measured after 24 hrs by resazurin assay; assay type: functional, cell-based
Erythrocyte [25] = assay: Hemolytic activity in sheep red blood cells assessed as hemolysis at 16 to 32 ug/ml incubated for 30 mins relative to control; assay type: toxicity, cell-based, Ovis aries; details: 0.5 h, dose 16-32 µg/ml
Staphylococcus aureus [26] = assay: Bactericidal activity in antibiotic-resistant Staphylococcus aureus ATCC 700699 assessed as reduction in viable cell count at 4 times of MIC measured upto 24 hrs by time kill assay; assay type: functional, organism-based
Staphylococcus aureus [27] = assay: Antimicrobial activity against antibiotic-resistant Staphylococcus aureus ATCC 33591 assessed as inhibition of visible growth measured after 20 to 24 hrs incubation by CLSI method; assay type: functional; details: time 20-24 hrs
Staphylococcus aureus [28] = assay: Antimicrobial activity against antibiotic-susceptible Staphylococcus aureus ATCC 25923 assessed as inhibition of biofilm formation by measuring prevention of turbidity after 24 hrs incubation by Real-time monitoring method; assay type: functional
[29] = Toxicity in Caenorhabditis elegans AU37 assessed as survival at 20 ug/ml measured for 4 days; details: at 20 µg/mL, time 4 day
Enterococcus faecalis [30] = assay: Antimicrobial activity against antibiotic-susceptible Enterococcus faecalis ATCC 29212 assessed as inhibition of biofilm formation by measuring prevention of turbidity after 24 hrs incubation by Real-time monitoring method; assay type: functional
Cell membrane [31] = assay: Induction of membrane permeability in Staphylococcus aureus ATCC 700699 assessed as increase in fluorescence intensity at 2 times of MIC incubated for 15 mins measured for 1 hr by propidium iodide/real time fluorescence based flow cytometry Rvb = 3.5); assay type: subcellular; details: time 75.0 min
[32] = Toxicity in Caenorhabditis elegans AU37 assessed as survival at 4 ug/ml measured for 4 days; details: 96 h, dose 4 µg/ml, time 4 day
Cell membrane [33] = assay: Induction of membrane permeability in Staphylococcus aureus ATCC 700699 assessed as increase in fluorescence intensity at 1 times of MIC incubated for 15 mins measured for 1 hr by propidium iodide/real time fluorescence based flow cytometry Rvb = 3.5); details: time 75.0 min
HEK293 = assay: Cytotoxicity against human HEK293 cells assessed as cell viability measured after 24 hrs by resazurin assay; assay type: toxicity, cell-based
Staphylococcus aureus [34] = assay: Antimicrobial activity against antibiotic-susceptible Staphylococcus aureus ATCC 25923 assessed as inhibition of biofilm formation on plastic coverslips at 0.5 times of MIC measured after 24 hrs by electron microscopy; assay type: functional, organism-based
Cell membrane [35] = assay: Induction of membrane permeability in Staphylococcus aureus ATCC 700699 assessed as increase in fluorescence intensity at 4 times of MIC incubated for 15 mins measured for 1 hr by propidium iodide/real time fluorescence based flow cytometry Rvb = 3.5); details: time 75.0 min
Staphylococcus aureus [36] = assay: Antimicrobial activity against methicilline-resistant Staphylococcus aureus ATCC 700699 persisters assessed as reduction in initial persister concentration at 16 times of MIC concentration measured for 6 hrs by Persisters time course assay; assay type: functional, organism-based
Cell membrane [37] = assay: Induction of membrane damage in Staphylococcus aureus ATCC 700699 assessed as cell surface damage at 1 to 4 times of MIC measured after 30 mins by Scanning electron microscopy; assay type: subcellular

Structure (SMILES)	MIC (Staphylococcus aureus [1])	MIC (Bacillus subtilis)	Activity (Erythrocyte [4])	MIC (Staphylococcus aureus [5])	MIC (Staphylococcus aureus [7])	MIC (Staphylococcus aureus [8])	MIC (Staphylococcus aureus [9])	MIC (Staphylococcus aureus [10])	MIC (Staphylococcus aureus [11])	Activity (Staphylococcus aureus [12])	MIC (Staphylococcus aureus [13])	MIC (Enterococcus faecalis [14])	log(activity) (Staphylococcus aureus [15])	MIC (Staphylococcus aureus [16])	MIC (Staphylococcus aureus [17])	MIC (Staphylococcus aureus [18])	MBIC (Enterococcus faecium)	Activity (Cell membrane [19])	MIC (Staphylococcus aureus [20])	MIC (Staphylococcus aureus [21])	also measured
O=C(O)c1ccc(-n2cc(CNc3ccc(Br)c(C(F)(F)F)c3)c(-c3cccc(F)c3)n2)cc1	2 µg/mL (≈ 3.74 µM)	0.5 µg/mL (≈ 0.936 µM)	< 10%	4 µg/mL (≈ 7.49 µM)	2 µg/mL (≈ 3.74 µM)	4 µg/mL (≈ 7.49 µM)	1 µg/mL (≈ 1.87 µM)	0.5 µg/mL (≈ 0.936 µM)	1 µg/mL (≈ 1.87 µM)	inactive	4 µg/mL (≈ 7.49 µM)	8 µg/mL (≈ 15 µM)	6	1 µg/mL (≈ 1.87 µM)	1 µg/mL (≈ 1.87 µM)	4 µg/mL (≈ 7.49 µM)	8 µg/mL	inactive	2 µg/mL (≈ 3.74 µM)	1 µg/mL (≈ 1.87 µM)	fold change (FC) (Staphylococcus aureus [2]): 2; Activity (Staphylococcus aureus [3]): Active; Activity (Staphylococcus aureus [6]): Active; MBEC (Enterococcus faecalis [22]): 2 µg/mL; Activity (Cell membrane [23]): inactive; Activity [24]: inactive; Activity (Erythrocyte [25]): Non-Toxic; Activity (Staphylococcus aureus [26]): Active; MIC (Staphylococcus aureus [27]): 0.5 µg/mL (≈ 0.936 µM)
O=C(O)c1ccc(-n2cc(CNc3cc(Br)cc(C(F)(F)F)c3)c(-c3ccc(F)c(F)c3)n2)cc1	2 µg/mL (≈ 3.62 µM)	0.5 µg/mL (≈ 0.905 µM)	< 10%	4 µg/mL (≈ 7.24 µM)	2 µg/mL (≈ 3.62 µM)	2 µg/mL (≈ 3.62 µM)	1 µg/mL (≈ 1.81 µM)	1 µg/mL (≈ 1.81 µM)	1 µg/mL (≈ 1.81 µM)	inactive	4 µg/mL (≈ 7.24 µM)	4 µg/mL (≈ 7.24 µM)	6	1 µg/mL (≈ 1.81 µM)	1 µg/mL (≈ 1.81 µM)	2 µg/mL (≈ 3.62 µM)	4 µg/mL	inactive	2 µg/mL (≈ 3.62 µM)	1 µg/mL (≈ 1.81 µM)	MBBC (Staphylococcus aureus [28]): 8 µg/mL; survival at 96 h, 20 ug/ml [29]: > 80%; MBBC (Enterococcus faecalis [30]): 8 µg/mL; Activity (Cell membrane [31]): 32.8%; Activity [32]: Non-Toxic; Activity (Cell membrane [33]): 18.5%; IC50 (HEK293): 27 µg/mL (≈ 48.9 µM); Activity (Staphylococcus aureus [34]): Active; Activity (Cell membrane [35]): 96.7%; Activity (Staphylococcus aureus [36]): Active; Activity (Cell membrane [37]): Active; Activity (Cell membrane [23]): inactive; Activity [24]: inactive; Activity (Erythrocyte [25]): Non-Toxic; MIC (Staphylococcus aureus [27]): 1 µg/mL (≈ 1.81 µM)
